Here are results for four substances from patent US10154673B2, “Method of removing lactose from a solution” (Stellenbosch University, priority 2014, dated 2018).

A short description of data set [1]: Radioactive lactose binding assay (scintillation counting). As to conditions: 0.2 nmol β-gal/mg beads, 0.2 nmol 14C lactose, 5 min. As for the experimental part:
Immobilised β-gal (Wildtype and E537D mutant) (0.2 nmol β-gal/mg beads) was incubated with 0.2 nmol ^14C lactose in buffer (500 mM NaPO4, 300 mM NaCl, 5 mM sodium metabisulphate, 0.2% tween20, pH 8) for 5 min. The immobilised β-gal was then removed from the ^14C lactose solution with a magnet. The original 0.2 nmol C14 solution and the residual supernatant from the binding experiment were analysed with a scintillation counter.

Data set [2] can be described thus: Partition HPLC analysis of the 14C lactose binding assay. Conditions: for hydrolysis of lactose during the binding experiment: binding assay supernatant, glucose peak at 4 min. As for the experimental part: […] The immobilised β-gal was then removed from the ^14C lactose solution with a magnet. The original 0.2 nmol C14 solution and the residual supernatant from the binding experiment were analysed with a scintillation counter.
All HPLC analyses were carried out using a Carbohydrate Analysis column (Waters (WAT084038)) and a Radiomatic “Flo-one beta” A-100 radioactive flow detector at ambient temperature. An isochratic mixture of 20:80 water:acetonitrile was used as mobile phase at a flow rate of 2 ml/min. Scintillation fluid was pumped at 6 ml/min for radioactive detection. Retention times of ^14C glucose and ^14C lactose standards were determined separately. This was followed by analysis of the residual supernatant and original ^14C lactose solution from the lactose binding assay.

Data set [3] is described as follows: ONPG activity assay of purified free β-gal. In kind it is biochemical. As to conditions: for Vmax / Km: free enzyme. As for the experimental part:
(§1) Purified β-gal was assayed using a colorimetric activity assay. Both enzymes were assayed at varying substrate concentrations. The assay took place in phosphate buffer (93 mM Sodium phosphate, 1 mM MgCl2, 112 mM β-mercaptoethanol, pH 7.3) with varying amounts of substrate concentration. The assay was performed in a BioTek® PowerWave 340 spectrophotometer at 37° C. for 5 min with a reading taken every 5 s. The buffers were preincubated at 37° C. for 30 min prior to the assay.
The activity needed to be determined for both the wildtype and E537D mutant β-gal prepared for this study, since the addition of the His-tag could influence enzyme activity. The activity of β-gal was determined using the ONPG activity assay. The kinetic parameters (Km and Vmax) were determined using the Michaelis Menten equation and Graphpad Prism® version 5 software for Windows, Graphpad Software, La Jolla Calif. USA.

Data set [4] in a line: Competitive activity assay (lactose as inhibitor, ONPG as substrate). In kind it is biochemical. As to conditions: for Vmax: ONPG with lactose 6, 16 and 60 mM as competitive inhibitor; for Ki: competitive inhibition by lactose, ONPG as substrate. On the procedure:
The protocol for the above activity assay was repeated, but with the addition of lactose as an inhibitor. Lactose was added to final concentration of 6, 16 and 60 mM respectively.
The assay for the activity of β-gal, with lactose as substrate, is relatively complex and generally requires the use of HPLC. It was therefore decided to use a competitive activity assay instead. Lactose was therefore added together with ONPG to determine if the expressed enzymes did have an affinity for the natural substrate. Lactose would compete for the active site with ONPG and therefore the greater the inhibition the higher the affinity of lactose for that particular active site.
The results obtained were analysed with the aid of Michaelis Menten plots and the Ki values for lactose were determined using Graphpad Prism® version 5 for Windows, Graphpad Software, La Jolla Calif. USA.

Data set [5] can be described thus: Adsorption of β-gal onto Dynabeads (HIPD), BCA protein determination. In kind it is binding. Conditions: room temperature, optimal concentration. On the procedure:
To determine the amount (μg) of β-gal that was bound to Dynabeads® (HIPD), a BCA protein assay was performed according to the manufacturer's protocol. A standard curve with BSA was established in a range from 0 to 2 mg/ml. The analysis was performed at 540 nm.
A dilution series of purified β-gal wildtype and E537D mutant was prepared in a concentration range from 0 to 0.4 mg/ml. The dilution series was incubated with the beads (25 μl) for 10 min at 25° C. according to the manufacturer's protocol to ensure optimal adsorption of β-gal onto the beads. The beads were subsequently separated from the solution with a magnet and the supernatant was removed and analysed as described immediately above. The beads were then washed three times in dialysis buffer and the supernatant of the wash steps were also analysed for protein content.
The experimental procedure described above was repeated at 4 and 37° C.
Purified β-gal (wildtype and E537D mutant), was incubated with the beads (25 μl) at room temperature and optimal concentration to ensure maximum binding. The supernatant was removed from the solution at regular time intervals for 10 min. The collected fractions were assayed for protein content as described above. Analysis of β-gal bound to the beads took place with SDS-PAGE and Western blot analyses as outlined above.

A short description of data set [6]: ONPG activity assay of immobilised wildtype β-gal. As to conditions: immobilised on Dynabeads, ONPG as substrate. Type of data set: biochemical. As for the experimental part:
as §1
70 μg β-gal (both E537D mutant and wildtype) were incubated for 10 min at 25° C. on a Vortex Genie 2 mixer (Healthcare technologies, South Africa) with 25 μl Dyanbeads® (HIPD). The immobilised β-gal was collected with the use of a magnet and the residual supernatant was removed for protein analysis. The beads were then washed three times and the wash supernatant was also kept and analysed for protein content.
The activity of the immobilized wildtype β-gal was determined with an ONPG activity assay as described earlier.

For the substance “immobilised E537D mutant β-gal: His-tagged E537D mutant β-gal immobilised on Dynabeads (HIPD) cobalt magnetic beads”, the “percentage binding of 14C lactose from solution” value (“percentage binding” below) in data set [1] is recorded as “approximately 15%”. Also, in data set [2], the “hydrolysis of lactose during the binding experiment” value is listed as “the lactose had not been hydrolysed”. In addition, the “hydrolysis of lactose to glucose” value is recorded as “relatively small glucose peak appeared” in data set [2] (incubation 20 min), “glucose peak had increased significantly” in data set [2] (incubation an hour (60 min)) and “majority of the substrate had been converted to glucose” in data set [2] (incubation three hours).

“wildtype β-gal: N-terminal His-tagged wildtype E. coli β-galactosidase (lacZ product), expressed and IMAC purified [reference compound]”: the Vmax is 230 µmol/min/mg in data set [3] (ONPG as substrate); 230 μmol/min/mg protein in data set [3] (ONPG as substrate, 37° C.); 230 µmol/min/mg in data set [4]. In addition, the Km (usually the concentration of substrate that gives half-maximal velocity) in data set [3] (ONPG as substrate, 37° C.) was found to be 220 µM. Further, affinity in data set [4] was put at a Ki of 12.4 mM. The “incubation time for maximum adsorption” value in data set [5] came to 5 min.

Take “immobilised wildtype β-gal: His-tagged wildtype β-gal immobilised on Dynabeads (HIPD) cobalt magnetic beads”: in data set [6], the Km worked out at 1.53 mM and the Vmax was 135 µmol/min/mg. Besides, the “percentage binding” value in data set [1] was “not able to bind lactose”. The “percentage binding” value in data set [1] (listed as immobilised wildtype enzyme) was “approximately 2%”. For the same substance, the “hydrolysis of lactose during the binding experiment” value in data set [2] is reported as “hydrolysed the lactose completely”.

Turning to “E537D mutant: N-terminal His-tagged E. coli β-galactosidase with Glu537 replaced by Asp”, the “activity lower/slower than the wildtype β-gal” value in data set [3] (ONPG activity, Vmax ratio) turned out to be 115 ×. Also, the Vmax in data set [3] (ONPG as substrate (FIG. 19 B legend)) turned out to be 2 μmol/min/protein. For the same substance, in data set [3] (ONPG as substrate, 37° C.), the Km stood at 270 µM and the Vmax is 2 μmol/min/mg protein. For the same substance, in data set [4], the Vmax turned out to be 2 µmol/min/mg; the Ki (usually the dissociation constant of the complex between target and ligand, obtained from inhibition or displacement) was 19 mM. Further, in data set [5], the “incubation time for maximum adsorption” value amounted to 5 min.
